Read-outs that look alike come from different tables or passages of the source.
Columns and labels:
[1] = biological target: EGFR del19/C797S (Homo sapiens, UniProt P00533, C797S/DEL746-750); test: Biochemical EGFR kinase assay (Lance Ultra TR-FRET), double mutant del19/C797S
In short: (§1)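 Kinase activity is measured by TR-FRET phosphopeptide detection. Compounds span 0.003 μM to 10 μM; the 1 h reaction at room temperature is quenched with EDTA, then labelled antibody (2 nM) is incubated 60 min before reading.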

[2] = biological target: EGFR wildtype (WT) (Homo sapiens, UniProt P00533); test: Biochemical EGFR kinase assay (Lance Ultra TR-FRET), wildtype
EGFR wildtype (WT), sequence (P00533 25-1210): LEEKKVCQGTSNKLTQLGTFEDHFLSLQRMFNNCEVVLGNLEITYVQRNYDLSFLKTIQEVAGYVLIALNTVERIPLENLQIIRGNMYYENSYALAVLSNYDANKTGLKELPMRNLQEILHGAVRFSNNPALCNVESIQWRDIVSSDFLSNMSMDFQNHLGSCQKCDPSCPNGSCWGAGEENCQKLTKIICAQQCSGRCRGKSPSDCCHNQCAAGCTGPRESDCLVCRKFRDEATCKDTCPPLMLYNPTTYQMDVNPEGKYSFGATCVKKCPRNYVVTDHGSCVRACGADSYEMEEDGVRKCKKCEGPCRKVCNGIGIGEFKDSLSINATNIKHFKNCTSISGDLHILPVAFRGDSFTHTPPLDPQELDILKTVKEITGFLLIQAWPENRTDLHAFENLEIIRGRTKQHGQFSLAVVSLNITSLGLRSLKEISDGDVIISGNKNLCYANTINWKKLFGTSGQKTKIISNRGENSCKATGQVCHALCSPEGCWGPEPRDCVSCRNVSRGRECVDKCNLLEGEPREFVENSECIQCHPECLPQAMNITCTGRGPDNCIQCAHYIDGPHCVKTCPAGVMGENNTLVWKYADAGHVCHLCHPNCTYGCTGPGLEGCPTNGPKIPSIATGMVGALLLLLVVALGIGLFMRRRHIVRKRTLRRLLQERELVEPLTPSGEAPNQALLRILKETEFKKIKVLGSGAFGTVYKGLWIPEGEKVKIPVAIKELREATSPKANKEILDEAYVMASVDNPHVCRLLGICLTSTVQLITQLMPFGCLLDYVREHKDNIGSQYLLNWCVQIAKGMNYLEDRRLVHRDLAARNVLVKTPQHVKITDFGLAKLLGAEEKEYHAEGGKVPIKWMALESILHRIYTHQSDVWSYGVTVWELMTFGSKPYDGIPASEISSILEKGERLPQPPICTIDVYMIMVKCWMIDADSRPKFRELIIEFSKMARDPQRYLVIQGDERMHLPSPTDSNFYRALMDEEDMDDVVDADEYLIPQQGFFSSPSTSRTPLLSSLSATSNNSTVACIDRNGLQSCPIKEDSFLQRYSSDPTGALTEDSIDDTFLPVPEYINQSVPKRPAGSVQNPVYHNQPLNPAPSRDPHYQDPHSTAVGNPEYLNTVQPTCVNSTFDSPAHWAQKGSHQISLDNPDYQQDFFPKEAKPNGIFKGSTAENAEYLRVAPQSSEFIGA
In short: as §1

[3] = biological target: EGFR L858R/C797S (Homo sapiens, UniProt P00533, C797S/L858R); test: Biochemical EGFR kinase assay (Lance Ultra TR-FRET), double mutant L858R/C797S
In short: as §1

[4] = biological target: EGFR L858R/T790M/C797S (Homo sapiens, UniProt P00533, C797S/L858R/T790M); test: Biochemical EGFR kinase assay (Lance Ultra TR-FRET), triple mutant L858R/T790M/C797S
EGFR L858R/T790M/C797S, sequence (P00533 25-1210 T790M/C797S/L858R): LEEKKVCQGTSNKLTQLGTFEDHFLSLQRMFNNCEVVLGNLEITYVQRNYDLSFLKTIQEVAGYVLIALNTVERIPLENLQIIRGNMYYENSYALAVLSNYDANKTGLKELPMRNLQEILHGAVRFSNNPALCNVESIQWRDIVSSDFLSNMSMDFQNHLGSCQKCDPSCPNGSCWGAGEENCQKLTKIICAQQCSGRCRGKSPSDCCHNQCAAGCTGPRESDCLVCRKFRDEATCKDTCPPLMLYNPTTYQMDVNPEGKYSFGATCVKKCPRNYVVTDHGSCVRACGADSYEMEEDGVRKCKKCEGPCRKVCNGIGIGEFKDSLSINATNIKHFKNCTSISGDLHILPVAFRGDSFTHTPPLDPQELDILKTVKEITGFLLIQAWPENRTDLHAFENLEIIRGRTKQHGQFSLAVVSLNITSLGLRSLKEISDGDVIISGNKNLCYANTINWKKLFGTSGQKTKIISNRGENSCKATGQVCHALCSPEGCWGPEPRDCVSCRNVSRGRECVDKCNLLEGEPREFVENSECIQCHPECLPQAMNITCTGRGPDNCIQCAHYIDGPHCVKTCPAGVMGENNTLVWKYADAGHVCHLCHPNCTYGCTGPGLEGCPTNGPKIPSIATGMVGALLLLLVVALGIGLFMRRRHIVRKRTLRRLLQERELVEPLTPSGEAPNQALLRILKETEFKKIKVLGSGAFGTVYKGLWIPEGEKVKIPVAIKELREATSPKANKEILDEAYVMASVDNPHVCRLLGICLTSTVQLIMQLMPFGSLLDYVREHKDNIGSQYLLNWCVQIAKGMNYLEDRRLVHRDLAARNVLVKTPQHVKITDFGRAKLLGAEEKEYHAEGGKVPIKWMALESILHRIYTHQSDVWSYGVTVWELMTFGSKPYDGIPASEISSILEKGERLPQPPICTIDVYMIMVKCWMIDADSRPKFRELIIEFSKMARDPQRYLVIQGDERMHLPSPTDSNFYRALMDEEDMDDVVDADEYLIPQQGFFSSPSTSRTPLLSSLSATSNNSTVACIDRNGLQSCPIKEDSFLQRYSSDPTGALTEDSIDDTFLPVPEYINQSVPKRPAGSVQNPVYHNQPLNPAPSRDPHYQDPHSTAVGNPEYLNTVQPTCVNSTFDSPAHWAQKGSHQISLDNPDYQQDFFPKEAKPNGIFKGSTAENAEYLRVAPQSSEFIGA
In short: as §1

[5] = biological target: EGFR del19/T790M/C797S (Homo sapiens, UniProt P00533, C797S/DEL746-750/T790M); test: Biochemical EGFR kinase assay (Lance Ultra TR-FRET), triple mutant del19/T790M/C797S
EGFR del19/T790M/C797S, sequence (P00533 with tags, fused parts or gaps DEL746-750/T790M/C797S): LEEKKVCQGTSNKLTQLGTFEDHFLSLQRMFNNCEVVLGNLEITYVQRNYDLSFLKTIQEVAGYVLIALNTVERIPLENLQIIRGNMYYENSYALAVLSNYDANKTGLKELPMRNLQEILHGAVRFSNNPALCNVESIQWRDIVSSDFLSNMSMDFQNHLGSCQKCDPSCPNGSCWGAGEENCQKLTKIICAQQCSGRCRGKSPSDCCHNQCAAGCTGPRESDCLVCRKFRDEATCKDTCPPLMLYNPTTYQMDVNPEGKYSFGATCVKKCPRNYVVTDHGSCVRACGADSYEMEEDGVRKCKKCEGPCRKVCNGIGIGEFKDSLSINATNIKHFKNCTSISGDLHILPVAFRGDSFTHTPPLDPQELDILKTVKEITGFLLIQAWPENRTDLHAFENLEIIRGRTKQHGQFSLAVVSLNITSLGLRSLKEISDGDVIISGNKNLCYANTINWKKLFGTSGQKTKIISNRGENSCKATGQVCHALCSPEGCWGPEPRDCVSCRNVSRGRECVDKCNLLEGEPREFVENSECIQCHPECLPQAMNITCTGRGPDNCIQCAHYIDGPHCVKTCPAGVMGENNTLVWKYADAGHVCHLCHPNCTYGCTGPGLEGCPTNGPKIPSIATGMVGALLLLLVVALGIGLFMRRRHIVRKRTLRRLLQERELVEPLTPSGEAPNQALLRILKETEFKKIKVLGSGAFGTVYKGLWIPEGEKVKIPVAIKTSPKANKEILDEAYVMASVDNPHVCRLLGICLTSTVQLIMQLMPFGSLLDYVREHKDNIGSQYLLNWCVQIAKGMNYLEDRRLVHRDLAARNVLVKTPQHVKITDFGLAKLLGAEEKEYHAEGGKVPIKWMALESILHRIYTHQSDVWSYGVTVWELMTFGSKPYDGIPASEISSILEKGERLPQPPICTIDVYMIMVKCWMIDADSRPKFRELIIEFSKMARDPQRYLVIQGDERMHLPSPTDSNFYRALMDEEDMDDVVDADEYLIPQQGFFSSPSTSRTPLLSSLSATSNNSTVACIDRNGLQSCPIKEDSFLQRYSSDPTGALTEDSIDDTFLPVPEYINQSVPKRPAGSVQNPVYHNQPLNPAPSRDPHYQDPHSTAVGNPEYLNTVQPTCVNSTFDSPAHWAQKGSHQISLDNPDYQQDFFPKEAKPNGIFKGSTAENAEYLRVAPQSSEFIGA
In short: as §1

[6] = IC50 del19/C797S (nM) 100 μM ATP, 100 μM ATP
[7] = Km ATP, read-out: IC50 del19/C797S (nM) Km ATP
[8] = IC50 WT (nM) 100 μM ATP, 100 μM ATP
[9] = Km ATP, read-out: IC50 WT (nM) Km ATP
[10] = IC50 L858R/C797S (nM) 100 μM ATP, 100 μM ATP
[11] = Km ATP, read-out: IC50 L858R/C797S (nM) Km ATP
[12] = IC50 L858R/T790M/C797S (nM) 100 μM ATP, 100 μM ATP
[13] = Km ATP, read-out: IC50 L858R/T790M/C797S (nM) Km ATP
[14] = IC50 del19/T790M/C797S (nM) 100 μM ATP, 100 μM ATP
[15] = Km ATP, read-out: IC50 del19/T790M/C797S (nM) Km ATP
[16] = Km ATP, read-out: IC50 del19/C797S, Km ATP
[17] = Km ATP, read-out: IC50 WT, Km ATP
[18] = Km ATP, read-out: IC50 L858R/C797S, Km ATP
[19] = Km ATP, read-out: IC50 L858R/T790M/C797S, Km ATP
[20] = Km ATP, read-out: IC50 del19/T790M/C797S, Km ATP

EGFR del19/C797S, sequence (P00533 with tags, fused parts or gaps DEL746-750/C797S): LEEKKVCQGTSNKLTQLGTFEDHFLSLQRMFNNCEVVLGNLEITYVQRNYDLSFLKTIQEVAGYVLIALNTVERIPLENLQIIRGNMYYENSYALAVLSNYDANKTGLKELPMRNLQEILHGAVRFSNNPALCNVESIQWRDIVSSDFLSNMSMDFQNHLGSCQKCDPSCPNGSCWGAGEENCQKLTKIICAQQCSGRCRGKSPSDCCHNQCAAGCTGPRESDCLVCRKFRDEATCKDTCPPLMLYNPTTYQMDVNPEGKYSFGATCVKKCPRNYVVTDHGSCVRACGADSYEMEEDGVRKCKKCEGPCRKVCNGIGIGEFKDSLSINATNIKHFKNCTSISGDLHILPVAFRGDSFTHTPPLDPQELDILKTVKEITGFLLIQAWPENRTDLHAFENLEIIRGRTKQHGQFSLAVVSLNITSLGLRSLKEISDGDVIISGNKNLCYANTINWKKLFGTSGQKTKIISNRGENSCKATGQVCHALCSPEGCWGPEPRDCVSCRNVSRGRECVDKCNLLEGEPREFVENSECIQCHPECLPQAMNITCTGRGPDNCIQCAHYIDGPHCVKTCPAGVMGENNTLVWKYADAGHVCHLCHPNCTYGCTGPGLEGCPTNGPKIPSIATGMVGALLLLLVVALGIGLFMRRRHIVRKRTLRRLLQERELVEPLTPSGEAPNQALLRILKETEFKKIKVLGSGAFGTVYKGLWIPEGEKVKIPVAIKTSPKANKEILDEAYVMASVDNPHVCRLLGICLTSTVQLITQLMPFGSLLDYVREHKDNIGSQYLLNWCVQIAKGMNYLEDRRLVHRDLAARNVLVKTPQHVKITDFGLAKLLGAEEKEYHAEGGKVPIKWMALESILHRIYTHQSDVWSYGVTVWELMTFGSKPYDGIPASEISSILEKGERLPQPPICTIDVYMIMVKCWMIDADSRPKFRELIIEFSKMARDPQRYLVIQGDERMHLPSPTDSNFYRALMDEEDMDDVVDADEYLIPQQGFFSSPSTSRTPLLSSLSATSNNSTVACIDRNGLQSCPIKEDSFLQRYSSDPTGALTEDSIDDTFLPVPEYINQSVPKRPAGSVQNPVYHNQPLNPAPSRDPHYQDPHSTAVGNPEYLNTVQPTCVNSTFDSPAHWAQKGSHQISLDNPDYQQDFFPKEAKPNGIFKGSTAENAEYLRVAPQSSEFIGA

Compound	IC50 [1, 6]	IC50 [1, 7]	IC50 [2, 8]	IC50 [2, 9]	IC50 [3, 10]	IC50 [3, 11]	IC50 [4, 12]	IC50 [4, 13]	IC50 [5, 14]	IC50 [5, 15]	IC50 [1, 16]	IC50 [2, 17]	IC50 [3, 18]	IC50 [4, 19]	IC50 [5, 20]
Cn1ccc(-c2cnc(Nc3ccnc(-c4cnn(S(=O)(=O)C5CC5)c4)n3)cc2N[C@H]2CC[C@H](CCO)CC2)n1 [Example 134, 2-((1r,4r)-4-((2-((2-(1-(Cyclopropylsulfonyl)-1H-pyrazol-4-yl)pyrimidin-4-yl)amino)-5-(1-methyl-1H-pyrazol-3-yl)pyridin-4-yl)amino)cyclohexyl)ethan-1-ol]	0.8 nM	0.6 nM	> 10000 nM	4.4 nM	9.2 nM	0.4 nM	0.5 nM	0.1 nM	0.5 nM	0.2 nM					
O=S(=O)(C1CC1)n1cc(-c2nccc(Nc3cc(NCCCn4ccnc4)c(-c4ccn(C(F)F)n4)cn3)n2)cn1 [Example 41, N^4-(3-(1H-Imidazol-1-yl)propyl)-N^2-(2-(1-(cyclopropylsulfonyl)-1H-pyrazol-4-yl)pyrimidin-4-yl)-5-(1-(difluoromethyl)-1H-pyrazol-3-yl)pyridine-2,4-diamine]	34.8 nM		> 10000 nM		> 10000 nM		6.8 nM		2 nM						
C[C@]1(O)CCCN(c2cc(Nc3ccnc(-c4cnn(S(=O)(=O)C5CC5)c4)n3)ncc2-c2ccn(C(F)F)n2)C1 [Example 107, (S)-1-(2-((2-(1-(Cyclopropylsulfonyl)-1H-pyrazol-4-yl)pyrimidin-4-yl)amino)-5-(1-(difluoromethyl)-1H-pyrazol-3-yl)pyridin-4-yl)-3-methylpiperidin-3-ol]	113 nM		> 10000 nM		346 nM		4.6 nM		2.7 nM						
Cn1nc(-c2cnc(Nc3ccnc(-c4cnn(S(=O)(=O)C5CC5)c4)n3)cc2N[C@H]2CC[C@@](C)(O)CC2)cc1C(F)(F)F [Example 252, (1s,4s)-4-((2-((2-(1-(Cyclopropylsulfonyl)-1H-pyrazol-4-yl)pyrimidin-4-yl)amino)-5-(1-methyl-5-(trifluoromethyl)-1H-pyrazol-3-yl)pyridin-4-yl)amino)-1-methylcyclohexan-1-ol]		1.2 nM	> 10000 nM	3 nM	9.8 nM	4.3 nM		0.8 nM	0.7 nM						
Cn1nc(-c2cnc(Nc3ccnc(-c4cnn(CC(F)F)c4)n3)cc2NN2CCC(O)CC2)cc1C(F)(F)F [Example 163, 1-((2-((2-(1-(2,2-Difluoroethyl)-1H-pyrazol-4-yl)pyrimidin-4-yl)amino)-5-(1-methyl-5-(trifluoromethyl)-1H-pyrazol-3-yl)pyridin-4-yl)amino)piperidin-4-ol]		55.3 nM		737 nM		744 nM		0.9 nM		1.8 nM					
C[C@]1(O)CC[C@@H](Nc2cc(Nc3ccnc(-c4ccc(F)nc4)n3)ncc2-c2ccn(C(F)F)n2)CC1 [Example 113, (1s,4s)-4-((5-(1-(Difluoromethyl)-1H-pyrazol-3-yl)-2-((2-(6-fluoropyridin-3-yl)pyrimidin-4-yl)amino)pyridin-4-yl)amino)-1-methylcyclohexan-1-ol]	606 nM		> 10000 nM	> 10000 nM	483 nM		186 nM		17.5 nM						
O=S(=O)(C1CC1)n1cc(-c2nccc(Nc3cc(NC[C@H]4C[C@H](CO)C4)c(-c4ccn(C(F)F)n4)cn3)n2)cn1 [Example 189, ((1r,3r)-3-(((2-((2-(1-(Cyclopropylsulfonyl)-1H-pyrazol-4-yl)pyrimidin-4-yl)amino)-5-(1-(difluoromethyl)-1H-pyrazol-3-yl)pyridin-4-yl)amino)methyl)cyclobutyl)methanol]	1.8 nM	1.2 nM	> 10000 nM	20.1 nM	27.1 nM	3.1 nM	0.2 nM	0.3 nM	0.4 nM	0.5 nM					
COc1ccc(-c2nccc(Nc3cc(N[C@H]4CC[C@@](C)(O)CC4)c(-c4ccn(C(F)F)n4)cn3)n2)c(F)n1 [Example 166, (1s,4s)-4-((5-(1-(Difluoromethyl)-1H-pyrazol-3-yl)-2-((2-(2-fluoro-6-methoxypyridin-3-yl)pyrimidin-4-yl)amino)pyridin-4-yl)amino)-1-methylcyclohexan-1-ol]		737 nM		503 nM		198 nM		3.6 nM		7.2 nM					
O=S(=O)(C1CC1)n1cc(-c2nccc(Nc3cc(OC4CCC(O)CC4)c(-c4ccn(C(F)F)n4)cn3)n2)cn1 (stereo not shown) [Example 66, 4-((2-((2-(1-(Cyclopropylsulfonyl)-1H-pyrazol-4-yl)pyrimidin-4-yl)amino)-5-(1-(difluoromethyl)-1H-pyrazol-3-yl)pyridin-4-yl)oxy)cyclohexan-1-ol]	4.5 nM	7.7 nM	> 10000 nM	38.9 nM	80.1 nM	5 nM	2.7 nM	0.3 nM	0.4 nM	0.3 nM					

Other lines, results leading:

IC50 [1, 6]	IC50 [1, 7]	IC50 [2, 8]	IC50 [2, 9]	IC50 [3, 10]	IC50 [3, 11]	IC50 [4, 12]	IC50 [4, 13]	IC50 [5, 14]	IC50 [5, 15]	IC50 [1, 16]	IC50 [2, 17]	IC50 [3, 18]	IC50 [4, 19]	IC50 [5, 20]	Compound
200 nM	7.6 nM	> 10000 nM	74.4 nM	10.7 nM	3.2 nM	0.6 nM	0.3 nM	0.6 nM	2.5 nM						O=S(=O)(C1CC1)n1cc(-c2nccc(Nc3cc(NC[C@H]4CC[C@@H](O)C4)c(-c4ccn(CC(F)(F)F)n4)cn3)n2)cn1 [Example 268, (1R,3S)-3-(((2-((2-(1-(Cyclopropylsulfonyl)-1H-pyrazol-4-yl)pyrimidin-4-yl)amino)-5-(1-(2,2,2-trifluoroethyl)-1H-pyrazol-3-yl)pyridin-4-yl)amino)methyl)cyclopentan-1-ol]
										11 nM	64.4 nM	13.3 nM	0.3 nM	0.7 nM	C[C@]1(O)CC[C@@H](Nc2nc(Nc3ccnc(-c4cnn(S(=O)(=O)C5CC5)c4)c3)ncc2-c2ccn(C(F)F)n2)CC1 [Example 355, (1s,4s)-4-((2-((2-(1-(Cyclopropylsulfonyl)-1H-pyrazol-4-yl)pyridin-4-yl)amino)-5-(1-(difluoromethyl)-1H-pyrazol-3-yl)pyrimidin-4-yl)amino)-1-methylcyclohexan-1-ol]
										7.9 nM	98.8 nM	4.6 nM	0.7 nM	1.6 nM	Cc1nn(CC(F)(F)F)cc1-c1nccc(Nc2cc(N[C@H]3CC[C@@](C)(O)CC3)c(-c3ccn(CC(F)F)n3)cn2)n1 [Example 335, (1s,4s)-4-((5-(1-(2,2-Difluoroethyl)-1H-pyrazol-3-yl)-2-((2-(3-methyl-1-(2,2,2-trifluoroethyl)-1H-pyrazol-4-yl)pyrimidin-4-yl)amino)pyridin-4-yl)amino)-1-methylcyclohexan-1-ol]
3.2 nM	2.3 nM	618 nM	3.4 nM	10.6 nM	7 nM	2.1 nM	0.9 nM	1.1 nM							Cn1nc(-c2cnc(Nc3ccnc(-c4cnn(S(=O)(=O)C5CC5)c4)n3)cc2N[C@H]2CC[C@@H](CO)CC2)cc1C(F)(F)F [Example 253, ((1s,4s)-4-((2-((2-(1-(Cyclopropylsulfonyl)-1H-pyrazol-4-yl)pyrimidin-4-yl)amino)-5-(1-methyl-5-(trifluoromethyl)-1H-pyrazol-3-yl)pyridin-4-yl)amino)cyclohexyl)methanol]
0.6 nM	0.2 nM	941 nM	0.3 nM		0.3 nM	0.3 nM	0.2 nM	0.4 nM	0.3 nM						Cc1cc(-c2cnc(Nc3ccnc(-c4cnn(S(=O)(=O)C5CC5)c4)n3)cc2N[C@H]2CC[C@@](C)(O)CC2)nn1C [Example 291, (1s,4s)-4-((2-((2-(1-(Cyclopropylsulfonyl)-1H-pyrazol-4-yl)pyrimidin-4-yl)amino)-5-(1,5-dimethyl-1H-pyrazol-3-yl)pyridin-4-yl)amino)-1-methylcyclohexan-1-ol]
										38.9 nM	1980 nM	91 nM	1.8 nM	0.9 nM	Cn1nc(-c2cnc(Nc3ccnc(-c4cnn(S(=O)(=O)C5CC5)c4)c3)nc2N[C@H]2CC[C@@H](F)CC2)cc1C(F)(F)F [Example 371, N^2-(2-(1-(Cyclopropylsulfonyl)-1H-pyrazol-4-yl)pyridin-4-yl)-N^4-((1s,4s)-4-fluorocyclohexyl)-5-(1-methyl-5-(trifluoromethyl)-1H-pyrazol-3-yl)pyrimidine-2,4-diamine]

Reference: patent US12258327B2, “5-membered heteroaryl-containing aminopyridine compounds as EGFR inhibitors” (YUHAN CORPORATION, priority 2021, dated 2025)
